Data from patent publication US12263248B2, “Compounds and compositions for intracellular delivery of therapeutic agents” (ModernaTX, Inc., priority 2018, dated 2025).

How the values were obtained:
[1] = Encapsulation efficiency of RNA (QUANT-IT RIBOGREEN RNA assay); assay type: physicochemical; details: for % Encapsulation: lipid nanoparticle, ±SD within one assay run (Table 37)
In short: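 RiboGreen fluorescence (ex ~480, em ~520 nm) compared between intact samples and Triton X-100-lysed samples after 15 min at 37 °C in TE buffer, pH 7.5. Percent free RNA is the blank-corrected intact/disrupted ratio.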

[2] = test system: luciferase (Luc) mRNA; assay: Luc expression, whole body bioluminescence after intravenous administration to mice; assay type: in vivo; details: mice; for luciferase activity relative to MC3 LNP control: intravenous, 0.5 mg/kg (mRNA dose)
In short: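 Bioluminescence, read as region-of-interest total flux at 3, 6 and 24 h, followed a single 0.5 mg/kg intravenous dose of Luc mRNA-loaded nanoparticles in mice (n=6). Luciferin substrate (200 μL, 15 mg/mL in PBS) was injected intraperitoneally into CD-1 mice 15 minutes ahead of each imaging point.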

[3] = Apparent (surface) pKa of the LNP formulation (TNS assay); assay type: physicochemical
In short: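 Fluorescence of TNS probe added to LNP samples (mRNA 0.04 mg/mL) was read across 21 buffers of pH about 3-12, triplicate per pH. The inflection point of the sigmoidal fluorescence-vs-pH curve, […], gives apparent pKa; method validated in 1× PBS and Tris/sucrose buffer.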

[4] = Chemical stability of lipids in ethanol (lipid purity); assay type: physicochemical
Method: Ester linkages were previously reported to trigger metabolism by esterases in vivo. (See Fukami, T. et al. Drug Metab. Pharmacokinet. 2012, 27, 466-477, the content of which is incorporated by reference herein in its entirety). […] (See Maier M. A., Mol. Ther. 2013, 21, 1570-1578, the content of which is incorporated herein in its entirety) First, the chemical stability of the lipids was evaluated by measuring ethanol stability at room temperature and 37° C. (Table 39). […] LNPs formed with compound 138 were larger, with a surface pKa>7. […] Removal of one ester function (compound 136) afforded LNPs with improved physiochemical characteristics and lower LNP surface pKa.

[5] = Particle size and polydispersity index of nanoparticle compositions (Zetasizer Nano ZS); assay type: physicochemical; details: for PDI (Polydispersity index) / Size: lipid nanoparticle, ±SD within one assay run (Table 37)
In short: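 Measured in 1×PBS by Zetasizer Nano ZS.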

[6] = Lipid clearance: lipid level in mouse liver tissue (LC-MS/MS); assay type: in vivo
Method: Quantification of Lipid by LC-MS/MS: Liver samples were homogenized following addition of 19 eq. (w/v) of water (DF=20). Protein was precipitated and analyzed against calibration standards prepared in matching blank. Chromatographic separation and quantification was accomplished with a LC-MS/MS System. Samples were injected and separated via HPLC A triple-quadrupole MS/MS system operated in positive ion mode was used for signal detection.

[7] = test system: IL-6, IP-10; assay: Cytokine induction in mice upon intravenous administration; assay type: in vivo; set-up: Cytokine induction IL-6 / Cytokine induction IP-10: unit not given here; details: intravenous, 0.5 mpk, 6 hours
From the text: The introduction of foreign material into a mammalian body induces an innate immune response that promotes cytokine production. Such immune responses to, for example, nanoparticle compositions including therapeutic and/or prophylactics, are undesirable. The induction of certain cytokines is thus measured to evaluate the […] of nanoparticle compositions. The concentrations of various cytokines in mice upon intravenous administration of nanoparticle compositions presented in Table 1A at a dosage of 0.5 mpk was measured at 6 hours. The standard MC3 formulation and a PBS control were also tested. As is evident in Table 7, IL-6 induction was highest for compositions including Compounds 1, 3, 9, 19, and 26, while IP-10 induction was highest for compositions including Compounds 3, 4, 7, 20, and 26. IL-6 induction was lowest for compositions including Compounds 4, 11, 12, and 28. IP-10 induction was lowest for compositions including Compounds 10, 11, 12, 13, 15, 17, and 18.

[8] = test system: luciferase (Luc) mRNA; assay: Luc expression in liver, lung, spleen and femur 6 hours after intravenous administration; assay type: in vivo; details: mice, 0.5 mpk; for Total Flux Femur / Total Flux Liver / Total Flux Lung / Total Flux Spleen: intravenous
In short: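 LNP-formulated mRNA given IV to mice (n=3) at 0.5 mpk; at 6 h, bioluminescence imaged ex vivo 15 min after IP D-luciferin (15 mg/mL, 200 μL), organs imaged within 25 min. Values are total flux by region of interest.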

[9] = test system: hEPO mRNA; assay: hEPO expression after intravenous administration to rats; assay type: in vivo, rat; details: Table 19B
Method: The expression of hEPO and cytokine induction in rats intravenously administered a nanoparticle composition at a dose of 2.0 mpk was measured at 6 h.
(§1) The expression of hEPO in rats intravenously administered a nanoparticle composition at a dose of 0.2 mpk or 2.0 mpk was measured at 6 hours. Table 16 summarize the ratio of hEPO expression levels using various nanoparticle compositions as compared to the hEPO expression level using MC3 formulation and the lipid levels in the liver measured 48 hours after administration, as described above. Tables 17 and 18 summarize the lipid levels in the liver and spleen measured 48 hours after administration of Compounds 28, 33, 53, and 54. Liver and spleen levels represent the average values calculated for 3 rats in each group. As is shown in Tables 17 and 18, less than 10% of Compounds 28, 33, 53, and 54 remained in the liver after 48 hours, while greater than 60% of MC3 remained.
The expression of hEPO induced by intravenous administration to rats of nanoparticle compositions at various doses was measured at 2, 4, 6, 8, 24, and 48 hour time points. FIGS. 3-6 respectively summarize the hEPO expression measured upon intravenous administration of formulations including Compounds 26, 18, 25, and MC3 to rat at various doses. The lipid levels of Compound 26 in the liver after 48 hours were about 19%.
(§2) 005781 The expression of hEPO and lipid levels in the liver and spleen in rats intravenously administered a nanoparticle composition at a dose of 0.2 mpk was measured at various time points. Compounds 18 and 25 were selected for comparison with MC3. Lipids were formulated according to the standard MC3 formulation described above. Rats were administered intravenously a single 0.2 mpk dose and expression monitored at 0.25, 0.5, 1, 2, 4, 8, 24, and 48 hours after administration.
Blood collection and analysis for hEPO. Blood was collected from mice or rats via the tail vein and hEPO concentrations were determined using a hEPO ELISA assay.

[10] = test system: hEPO mRNA; assay: hEPO expression after subcutaneous administration to mice; assay type: in vivo, female CD-1 mice; details: relative to MC3
Method: The effect of the lipids of the disclosure on protein expression upon subcutaneous administration was studied. Formulations containing lipids of the disclosure and an mRNA expressing luciferase or hEPO were administered subcutaneously to female CD-1 mice at 0.5 mpk. Expression levels were obtained via whole body luminescent imaging (BLI) at 3, 6 and 24 hours after injection and expression levels in liver, spleen and at the injection site were evaluated ex vivo after 24 hours. […] See also Tables 35 and 36, and FIGS. 19 and 27.
Table 36 summarizes the hEPO expression levels using various nanoparticle compositions of the disclosure as compared to the hEPO expression level using a formulation containing MC3 or Compound 18, following subcutaneous administration, as described above.

[11] = Residual lipid levels in rat liver and spleen (UPLC-MS); assay type: in vivo; details: Table 19B, liver, 24 h
Method: At 48 h liver tissue was harvested for lipid quantification. To pre-weighed tissues, Milli-Q water was added (900 μL water per 100 mg tissue). Tissues were homogenized using an Omni probe homogenizer until uniform. 50 μL of samples and matrix calibration standards were aliquoted into a 96-well plate. 50 μL of blank matrix for matrix blanks and control blanks were aliquoted. 400 μL is spiking solution were manually added to all samples except matrix blanks. 400 μL of 50:50 ACN:IPA were manually added to matrix blanks. The plate was covered and the samples vortexed and centrifuged for 5 minutes at >3000 rpm. 200 μL of the samples were transferred into a clean 96-well plate for analysis. Samples were analyzed on a Waters Acquity UPLC using a Higgins Analytical Clipeus C8 column ([…], 30×2.1 mm) and a gradient of either 70-95% or 60-95% (Mobile Phase A: 5 mM ammonium formate in 50:50:1 H2O:MeOH:formic acid; Mobile Phase B: 5 mM ammonium formate in 100:1 MeOH:formic acid) over 1.3 min at 1.2 mL/min (column temperature 55° C.). Detection was based on electrospray ionization (ESI) in positive mode using a Sciex API5500 Mass Spectrometer.
as §1, §2

[12] = test system: sC5b-9; assay: Complement activation in vitro (sC5b-9 levels); assay type: cell-based; details: human cells contacted in vitro
Method: Complement activation assists in the clearance of pathogens from an organism. As it is undesirable that a subject's body recognize a nanoparticle composition as a foreign invader, low complement system activation upon administration of such a composition is preferred. The complex sC5b-9 is a marker for the activation of the complement system. Thus, human cells were contacted in vitro with nanoparticle compositions according to Table 1A and were evaluated for sC5b-9 levels.

[13] = lipid nanoparticle, ±SD within one assay run (Table 37)
[14] = Table 1A, lipid:DSPC:cholesterol:PEG-DMG 50:10:38.5:1.5 mol %
[15] = Table 1B, formulated with hEPO mRNA
[16] = Table 1D, for subcutaneous administration, # formulated with hEPO mRNA

CCCCCCCCCOC(=O)CCCCCCCN(CCCCCCCC(=O)OC(CCCCCCCC)CCCCCCCC)CCCNC(=O)C(C)(C)COC [Compound 281, Heptadecan-9-yl 8-((3-(3-methoxy-2,2-dimethylpropanamido)propyl)(8-(nonyloxy)-8-oxooctyl)amino)octanoate]
% Encapsulation [1]: 96.9 ± 1.2% | luciferase activity relative to MC3 LNP control [2]: two-fold lower | pKa [3, 13]: 6.79 ± 0.37 | Lipid Purity ([4]; t = 0): 95.17% | Lipid Purity ([4]; t = 96 h, 25° C.): 95.15% | Lipid Purity ([4]; t = 96 h, 37° C.): 96.47% | PDI (Polydispersity index) [5]: 0.14 ± 0.05 | Size [5]: 93.8 ± 5.6 nm | % dose remaining Mouse liver tissue, 24 h ([6]; CD-1 mouse liver 24 h after 0.5 mg/kg bolus dose mRNA, n = 5 ± S.D.): 66 ± 22% | original dose remaining in liver tissue 24 hours post dose ([6]; mice, intravenous): 66%

CCCCCCCCCOC(=O)CCCCCCCN(CCCCCCCC(=O)OC(CCCCCCCC)CCCCCCCC)CCN(C)C [Compound 14, Heptadecan-9-yl 8-((2-(dimethylamino)ethyl)(8-(nonyloxy)-8-oxooctyl)amino)octanoate]
Cytokine induction IL-6 [7]: 75.29 | Cytokine induction IP-10 [7]: 621.49 | EE (%) ([1]; Table 1A): 95.24% | % Encapsulation [1]: 95.2 ± 0.5% | Total Flux 3 hours ([2]; i.v., 0.5 mg/kg, Luc mRNA, 3 hours): 4.43E+08 | Total Flux 6 hours ([2]; i.v., 0.5 mg/kg, Luc mRNA): 2.29E+09 | Total Flux 24 hours ([2]; i.v., 0.5 mg/kg, Luc mRNA): 1.39E+08 | luciferase activity relative to MC3 LNP control [2]: complete loss of delivery efficiency | pKa ([3]; Table 1A): 6.58 | pKa [3, 13]: 6.58 ± 0.11 | Lipid Purity ([4]; t = 0): 92.08% | Lipid Purity ([4]; t = 96 h, 25° C.): 92.07% | Lipid Purity ([4]; t = 96 h, 37° C.): 91.90% | PDI ([5]; Table 1A): 0.15 | Size (nm) [5, 14]: 130.1 nm | PDI (Polydispersity index) [5]: 0.15 ± 0.07 | Size [5]: 130.1 ± 3.5 nm | Total Flux Femur [8]: 4.91E+06 | Total Flux Liver [8]: 1.91E+08 | Total Flux Lung [8]: 4.74E+06 | Total Flux Spleen [8]: 1.92E+08

CCCCCCCCCOC(=O)CCCCCCCN(CCCCCCCC(=O)OC(CCCCCCCC)CCCCCCCC)CCCN/C(=N/S(C)(=O)=O)N(C)C [Compound 233, Heptadecan-9-yl (Z)-8-((3-(3,3-dimethyl-2-(methylsulfonyl)guanidino)propyl)(8-(nonyloxy)-8-oxooctyl)amino)octanoate]
AUC (hEPO) [9]: 129000 pg·h/mL | Lipid/MC3 ([hEPO] ratio) ([9]; relative to MC3): 0.00664 | Lipid/MC3 AUC ([9]; relative to MC3): 0.01 | [hEPO] ([9]; species, dose and time not given): 9800 pg/mL | EE (%) ([1]; Table 1A): 97.81% | EE (%) [1, 15]: 97.6% | % EE [1, 16]: 97.5% | PDI ([5]; Table 1A): 0.11 | Size (nm) [5, 14]: 66.9 nm | PDI [5, 15]: 0.21 | Size (nm) [5, 15]: 93.7 nm | PDI [5, 16]: 0.13 | Size (nm) [5, 16]: 87.0 nm | Novel lipid/MC3 expression ratio, 6 hr. time point, s.c. hEPO 0.5 mpk [10]: 0.03 | % dose remaining, liver, 24 h [11]: 0.07%

CCCCCCCCCCCOC(=O)CCCCCN(CCO)CCCCCC(=O)OCCCCCCCCCCC [Compound 141, Diundecyl 6,6′-((2-hydroxyethyl)azanediyl)dihexanoate]
Cytokine induction IL-6 [7]: 327.15 | Cytokine induction IP-10 [7]: 1072.04 | Fold increase in sC5b-9 levels versus saline [12]: 1.81 | EE (%) ([1]; Table 1A): 94.1% | Total Flux 6 hours ([2]; i.v., 0.5 mg/kg, Luc mRNA): 1.21E+06 | Total Flux 24 hours ([2]; i.v., 0.5 mg/kg, Luc mRNA): 3.49E+05 | flux at all timepoints measured ([2]; i.v., 0.5 mg/kg, 3, 6 and 24 hour, in words): significantly lower flux | pKa ([3]; Table 1A): 7.47 | PDI ([5]; Table 1A): 0.99 | Size (nm) [5, 14]: 91.3 nm | Flux in the liver ([8]; i.v., in words): lowest | Flux in the spleen ([8]; i.v., in words): lowest | Total Flux Femur [8]: 2.86E+04 | Total Flux Liver [8]: 1.59E+05 | Total Flux Lung [8]: 3.85E+04 | Total Flux Spleen [8]: 6.29E+04
